Laboratory results from patent publication US9370506B2, “Modulators of aldehyde dehydrogenase and methods of use thereof” (The Board of Trustees of the Leland Stanford Junior …, priority 2008, dated 2016).
Residue numbers refer to the chain shown, from its start.

How the values were obtained:
Type in all cases: biochemical
[1] = target: T1, ALDH2 (Homo sapiens, UniProt P05091, E504K); experiment: Screening for ALDH2 agonists (NAD+ to NADH, optionally diaphorase/resazurin-coupled); details: increase of ALDH2 activity; 10 mM acetaldehyde as substrate
T1 sequence (P05091 18-517 E504K): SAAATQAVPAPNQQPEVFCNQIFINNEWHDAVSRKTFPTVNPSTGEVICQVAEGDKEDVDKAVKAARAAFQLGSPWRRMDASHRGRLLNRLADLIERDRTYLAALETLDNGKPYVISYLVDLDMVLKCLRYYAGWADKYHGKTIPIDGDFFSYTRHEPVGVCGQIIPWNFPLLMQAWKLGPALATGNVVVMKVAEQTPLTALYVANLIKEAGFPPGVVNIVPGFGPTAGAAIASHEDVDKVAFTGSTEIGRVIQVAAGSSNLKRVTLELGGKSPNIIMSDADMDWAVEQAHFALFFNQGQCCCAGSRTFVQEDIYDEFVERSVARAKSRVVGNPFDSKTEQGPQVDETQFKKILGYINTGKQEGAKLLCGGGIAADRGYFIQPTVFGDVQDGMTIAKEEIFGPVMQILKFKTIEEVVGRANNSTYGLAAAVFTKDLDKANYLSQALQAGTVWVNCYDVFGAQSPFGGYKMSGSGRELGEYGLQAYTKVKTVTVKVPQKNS
Protocol: Compounds were screened using a method as depicted schematically in FIG. 4. Essentially, the reaction is carried out at 25° C. in 0.1 NaPPi buffer, pH 9.5, 2.4 mM NAD^+ and 10 mM acetaldehyde as the substrate. Enzymatic activity is measured by a reductive reaction of NAD^+ to NADH at 340 nm. Alternatively, the production of NADH can be coupled with another enzymatic reaction that consumes NADH and that provides for a detectable signal. An example of such an enzymatic reaction is a diaphorase-based reaction, which reduces resazurin to its […] fluorescent compound resorufin.
For example, a 120 μl reaction mixture for ALDH enzymatic activity comprises the following components:
43 μl 150 mM sodium pyrophosphate (NaPPi) buffer, pH 9.0;
15 μl 80 mM acetaldehyde;
1 μl of resazurin (0.2 mg/ml in H2O);
1 μl of diaphorase (1 unit, e.g., from Clostridium kluyveri);
2 μl of variant ALDH2 (e.g., 2 μl of variant ALDH2 at (0.5-2 μg/μl); and
28 μl of a solution comprising an agent to be tested, which agent has been resuspended in an appropriate solvent (e.g., an aqueous solution, DMSO, and the like).
Approximately 65,000 compounds were screened. A number of compounds were identified that increase the activity of ALDH2.

[2] = target: T2, E488K ALDH1 mutant recombinant protein (Homo sapiens, UniProt P00352, E488K); experiment: High throughput screening against E488K ALDH1 mutant; details: octylaldehyde and phenylacetaldehdye as substrates
T2 sequence (P00352 1-501 E488K): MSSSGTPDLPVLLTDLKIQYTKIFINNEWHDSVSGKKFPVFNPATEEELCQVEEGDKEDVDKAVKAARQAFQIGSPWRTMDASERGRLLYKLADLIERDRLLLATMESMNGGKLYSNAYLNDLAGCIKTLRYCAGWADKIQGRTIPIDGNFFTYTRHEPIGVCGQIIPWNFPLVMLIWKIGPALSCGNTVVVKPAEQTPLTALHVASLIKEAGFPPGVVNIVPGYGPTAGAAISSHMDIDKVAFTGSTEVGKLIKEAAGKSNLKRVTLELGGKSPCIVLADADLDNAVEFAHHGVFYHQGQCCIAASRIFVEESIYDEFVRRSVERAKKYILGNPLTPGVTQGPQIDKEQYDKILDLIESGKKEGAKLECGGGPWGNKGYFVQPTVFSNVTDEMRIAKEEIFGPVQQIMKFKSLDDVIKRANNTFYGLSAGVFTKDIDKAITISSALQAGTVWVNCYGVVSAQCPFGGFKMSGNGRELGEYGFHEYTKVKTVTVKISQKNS
Excerpt: The screening assays used octylaldehyde (an example of longer chain aliphatic aldehyde) and phenylacetaldehdye (an example of aromatic aldehyde), instead of acetaldehyde.

[3] = target: T3, ALDH2 isozyme (Homo sapiens, UniProt P05091); experiment: ALDH2 enzymatic activity, spectrophotometric NAD+ to NADH assay; details: acetaldehyde as substrate
T3 construct: made in house; host or cells: BL21 E. coli
T3 sequence (P05091 18-517): T1 sequence (P05091 18-517 E504K) with K487E
Protocol: Reagents for plant-derived compounds safrole, isosafrole, piperine, sesamin, capsaicin were purchased from Sigma-Aldrich Chemicals and dihydromethysticin was purchased from AvaChem. Scientific. Piperine related compounds, Alda-101 to Alda-112, were synthesized by standard organic chemistry. All testing compounds were dissolved in dimethyl-sulfoxide (DMSO) to obtain a stock solution of 20 mM. Different recombinant ALDH isozymes with a His-epitope tag at the N-terminus were constructed, cloned and expressed in BL21 E. coli host cells according published methods (Chen et al., 2008 Science 321:1493). The bacteria were subjected to 0.5 mM IPTG induction for protein expression at 30° C. Purification of the recombinant proteins by affinity nickel columns were carried out using a standard protocol according to manufacturer's instructions (Novagen, Wis., USA).
ALDH enzymatic activity was determined spectrophotometrically using purified recombinant protein (15 ug) in the reductive reaction of NAD^+ to NADH at λ340 nm (Rex et al., 1985, Alcohol Clin Exp Res 9: 147). All the assays in the presence of absence of a testing compound were carried out at 25° C. in […] pyrophosphate buffer, pH=9.5, 2.4 mM NAD+ and 10 mM acetaldehyde or phenylacetaldehyde as a substrate.

SMILES | EC50 [1] [µM] | further results
Cc1ccc(CNS(=O)(=O)c2cc(-c3cc(C)no3)ccc2C)cc1 [Alda-60, 2-methyl-N-(4-methyl-benzyl)-5-(3-methyl-isoxazol-5-yl)-benzene sulfonamide] | 4.96 | –
COc1ccccc1CNc1nccn(-c2ccc3c(c2)OCCO3)c1=O [Alda-63, 1-(2,3-dihydro-benzo[1,4]dioxin-6-yl)-3-(2-methoxy-benzylamino)-1H-pyrazin-2-one] | 12.4 | –
C=CCn1c(C(C)NC(=O)c2ccccc2)nc2ccccc21 (centres unmarked) [Alda-81, N-[1-(1-allyl-1H-benzoimidazol-2-yl)-ethyl]-benzamide] | – | identified as ALDH1 activator [2]: ALDH1 activators
O=C(NCc1ccc2c(c1)OCO2)c1cc(-n2cnnc2)ccc1Cl [Alda-53, N-benzo[1,3]dioxol-5-ylmethyl-2-chloro-5-[1,2,4]triazol-4-yl-benzamide] | 1.09 | –
C=CCc1ccc2c(c1)OCO2 [safrole, 5-(2-propenyl)-1,3-benzodioxole] | – | effect on enzymatic activity of ALDH2 isozyme ([3]; 500 uM & 1000 uM, FIG. 17): Inhibitory effect; effect on enzymatic activity of ALDH2 isozyme, 15-minute kinetic measurements ([3]; 1000 uM, FIG. 18): inhibitory effect
Cc1ccc(CNC(=O)Cn2c3ccccc3c3cn[nH]c(=O)c32)cc1 [Alda-71, N-(4-methyl-benzyl)-2-(1-oxo-1,2-dihydro-2,3,9-triaza-fluoren-9-yl)-acetamide] | 16.6 | –
COc1cccc(CNc2nccn(-c3ccc(C)c(C)c3)c2=O)c1 [Alda-62, 1-(3,4-dimethyl-phenyl)-3-(3-methoxy-benzylamino)-1H-pyrazin-2-one] | 14.7 | –
CCn1cnc2c(=O)oc3ccc(S(=O)(=O)NCc4ccc5c(c4)OCO5)cc3c21 [Alda-54, 1-ethyl-4-oxo-1,4-dihydro-chromeno[3,4-d]imidazole-8-sulfonic acid (benzo[1,3]dioxol-5-ylmethyl)-amide] | 1.72 | –
COc1c(C(=O)NCc2ccc3c(c2)OCO3)ccc2ccccc12 [Alda-52, 1-methoxy-naphthalene-2-carboxylic acid (benzo[1,3]dioxol-5-ylmethyl)-amide] | 3 | –
Cc1cc(C)cc(NC(=O)CSC2=Nc3ccccc3C3=NC(C(C)C)C(=O)N23)c1 (centres unmarked) [Alda-65, N-(3,5-dimethyl-phenyl)-2-(2-isopropyl-3-oxo-2,3-dihydro-imidazo[1,2-c]quinazolin-5-ylsulfanyl)-acetamide] | 8.41 | –
Cc1ccc(-n2cc(-c3ccccc3)c3c(N4CCN(CCO)CC4)ncnc32)cc1Cl [Alda-73, 2-{4-[7-(3-chloro-4-methyl-phenyl)-5-phenyl-7H-pyrrolo[2,3-d]pyrimidin-4-yl]-piperazin-1-yl}-ethanol] | 3.55 | –
CCCCC(=O)Nc1cc(-c2ccc(C)cc2)no1 [Alda-57, pentanoic acid (3-p-tolyl-isoxazol-5-yl)-amide] | 1.4 | –
O=C(C1COc2cc(S(=O)(=O)NCc3ccccc3Cl)ccc2O1)N1CCCCCC1 (centres unmarked) [Alda-64, 2-(azepane-1-carbonyl)-N-(2-chloro-benzyl)-2,3-dihydro-benzo[1,4]dioxine-6-sulfonamide] | 2.2 | –
Cc1ccc(CNC(=O)C(C)SC2=Nc3ccccc3C3=NC(C(C)C)C(=O)N23)cc1 (centres unmarked) [Alda-66, 2-(2-isopropyl-3-oxo-2,3-dihydro-imidazo[1,2-c]quinazolin-5-ylsulfanyl)-N-(4-methyl-benzyl)-propionamide] | 2.66 | –
Cc1ccc(-n2ncc3c(N(CCO)Cc4ccccc4)ncnc32)cc1Cl [Alda-67, 2-{benzyl-[1-(3-chloro-4-methyl-phenyl)-1H-pyrazolo[3,4-d]pyrimidin-4-yl]-amino}-ethanol] | 3.42 | –
Cc1ccc(N2CC(c3nc(-c4ccncc4)no3)CC2=O)cc1F (centres unmarked) [Alda-70, 1-(3-fluoro-4-methyl-phenyl)-4-(3-pyridin-4-yl-[1,2,4]oxadiazol-5-yl)-pyrrolidin-2-one] | 5.57 | –
CCOC(=O)c1cc(-c2ccc(C)cc2)n(CCC(=O)N2CCN(c3ccccn3)CC2)c1C [Alda-56, 2-methyl-1-[3-oxo-3-(4-pyridin-2-yl-piperazin-1-yl)-propyl]-5-p-tolyl-1H-pyrrole-3-carboxylic acid ethyl ester] | 3.65 | –
NC(=O)c1cc(S(=O)(=O)NCc2ccc3c(c2)OCO3)cs1 [Alda-59, 4-[(benzo[1,3]dioxol-5-ylmethyl)-sulfamoyl]-thiophene-2-carboxylic acid amide] | 4.6 | –
COc1ccc(C2C(C#N)=C(C)NC3=C2C(=O)CC(c2ccc(Cl)cc2)C3)cc1 (centres unmarked) [Alda-83, 7-(4-chloro-phenyl)-4-(4-methoxy-phenyl)-2-methyl-5-oxo-1,4,5,6,7,8-hexahydro-quinoline-3-carbonitrile] | – | identified as ALDH1 activator [2]: ALDH1 activators
Cc1ccc(CNS(=O)(=O)c2cc(-c3onc(C)c3C)ccc2C)cc1 [Alda-61, 5-(3,4-dimethyl-isoxazol-5-yl)-2-methyl-N-(4-methyl-benzyl)-benzene sulfonamide] | 6.44 | –
Cc1ccc(N2CC(c3nc(-c4cccnc4)no3)CC2=O)cc1Cl (centres unmarked) [Alda-69, 1-(3-chloro-4-methyl-phenyl)-4-(3-pyridin-3-yl-[1,2,4]oxadiazol-5-yl)-pyrrolidin-2-one] | 8.9 | –
O=C(Cn1c2ccccc2c2cn[nH]c(=O)c21)NCc1ccc2c(c1)OCO2 [Alda-72, N-benzo[1,3]dioxol-5-ylmethyl-2-(1-oxo-1,2-dihydro-2,3,9-triaza-fluoren-9-yl)-acetamide] | 2.92 | –
